Data taken from PMC8911181, “A Novel CDK4/6 and PARP Dual Inhibitor ZC-22 Effectively Suppresses Tumor Growth and Improves the Response to Cisplatin Treatment in Breast and Ovarian Cancer” (International Journal of Molecular Sciences, 2022).

Legend:
[1] = Body weight and histological analysis (H&E) of major organs, MDA-MB-231 tumor-bearing mice; type: in vivo; conditions: ZC-22 monotherapy 50 mg/kg ip
Experimental: To detect the safety of ZC-22 monotherapy or combination therapy, sections of mouse heart, liver, spleen, lung, and kidney tissues were stained with hematoxylin and eosin (H&E) and then analyzed by microscopy.
Figure S3. ZC-22 inhibits signaling of CDK4/6 and PARP in xenograft tumors of breast cancer. Female NOD-SCID mice were injected subcutaneously with 2×10^6 of MDA-MB-231 cells and treated ip daily with 50 mg/kg of Olaparib (OLA) or LY2835219 (LY-2) alone or together (OLA+LY-2), or ZC-22 starting on day 10 after injection of cells when tumors were 50–80 mm3 in size. Representative pictures of (A) and quantification of percentage of (B) phosphorylated Rb (p-Rb)-positive cells in immunohistochemical staining of the MDA-MB-231 xenograft tumor tissues. Values are means ± SEM, n = 6. ns, not significant, and *** p < 0.001 in the unpaired t-test. (C) Western blot analysis of p-Rb (Left) and PAR (Right) in the MDA-MB-231 xenograft tumor tissues with indicated treatment.
(D) Body weights of MDA-MB-231 tumor burden mice with indicated treatment. Values are means ± SD, n = 6. ns, not significant in unpaired t-test. (E) H&E staining of the heart, liver, spleen, lung, and kidney tissues of tumor-bearing mice treated with DMSO or ZC-22, showing the lack of toxicity of ZC-22 treatment.
Figure S4. ZC-22 increases the sensitivity of breast and ovarian cancer cells to cisplatin. […]

[2] = tested on: PARP; assay: Western blot of PAR, a direct product of PARP; type: cell-based, human; conditions: MDA-MB-231 (2 μM) and OVCAR5 (0.5 μM) cells, 48 h
Experimental: Cells were washed with PBS, collected with scraper, and then lysed in RIPA buffer containing 1× protease and phosphatase inhibitors for 30 min on ice. The supernatants were collected by centrifugation at full speed for 10 min at 4 °C and subjected to SDS-PAGE followed by immunoblotting as described before. Signals were detected using enhanced chemiluminescence (Millipore, Burlington, MA, USA) and captured by the G: BOX Chemi XRQ gel doc System (Syngene, Cambridge, UK).
Figure 3 ZC-22 inhibits CDK4/6 and PARP to induce cell-cycle arrest, DNA damage, and apoptosis in breast and ovarian cancer cells. (A,B) MDA-MB-231 cells were treated with 2 μM LY2835219 (LY-2) or ZC-22. […] The levels of CDK4/6 and p-Rb/Rb were determined by Western blot (A). Cell-cycle distribution was analyzed by flow cytometry (B). […] (D,E) Representative pictures (left) and quantification of percentage (right) of γH2A.X-positive cells in MDA-MB-231 cells treated with 2 μM OLA or ZC-22 for 24 h (D), or OVCAR5 cells treated with 0.5 μM OLA or ZC-22 for 24 h (E). Values are means ± SD, n = 3. * p < 0.05, ** p < 0.01, and *** p < 0.001 for comparisons with the DMSO-treated group. p value was calculated using an unpaired t-test. […] Values are means ± SD, n = 3. * p < 0.05, ** p < 0.01, and *** p < 0.001 vs. the DMSO-treated group. p value was calculated using an unpaired t-test. […]

Structure (SMILES): Cc1nc2c(F)cc(-c3nc(Nc4ccc(N5CCN(C(=O)c6cc(Cc7n[nH]c(=O)c8ccccc78)ccc6F)CC5)cn4)ncc3F)cc2n1C(C)C [ZC-22, 4-(4-fluoro-3-(4-(6-((5-fluoro-4-(4-fluoro-1-isopropyl-2-methyl-1H-benzo[d]imidazole-6-yl)pyrimidin-2-yl)amino)pyridin-3-yl)piperazine-1-carbonyl)benzyl)phthalazin-1(2H)-one]
- toxicity (body weight, histology of major organs) [1]: no obvious toxicity
- PAR expression [2]: effectively inhibited PAR expression
